According to patent publication US11352350B2, “IRAK degraders and uses thereof” (Kymera Therapeutics, Inc., priority 2018, dated 2022):
Where two headings read alike, the source gives them in different places.

Experiments:
OCI-LY10 = test: CTG Cell Viability Assay - OCI-LY10; assay type: cell-based, human; settings: Homo sapiens, OCI-Ly10, 96 h, OCI-LY10, 4 days; read-out: CTG Cell Viability Assay - OCI-LY10: Average external-IC50
Outline: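 OCI-LY10 cells exposed to 9-dose, 1:3 dilutions from 10 μM top (0.2% DMSO) for 4 days at 37° C, 5% CO2. Viability by CellTiter-Glo luminescence; IC50 from three-parameter logistic fit.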

IRAK4 = IRAK4 (Homo sapiens (Human), UniProt Q9NWZ3); test: IRAK4 MSD degradation in OCI-LY10; assay type: cell-based; settings: MSD
Outline: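 OCI-LY10 cells treated with 8-point 1:3 dilutions (top 1 to 10 μM final) for 4 to 24 h at 37° C. Lysate IRAK4 measured by MSD sandwich immunoassay (2H9 capture, Y279 detection, SULFO-TAG anti-rabbit). DC50 from three-parameter logistic fit.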

[1] = OCI-LY10, 4 hrs, read-out: IRAK4 MSD degradation in OCI-LY10 at 4 hrs: Average external-Abs DC50
[2] = OCI-LY10, 24 hrs, read-out: IRAK4 MSD degradation in OCI-LY10 at 24 hrs: Average external-Abs DC50

Sequence of IRAK4 (Q9NWZ3 whole entry): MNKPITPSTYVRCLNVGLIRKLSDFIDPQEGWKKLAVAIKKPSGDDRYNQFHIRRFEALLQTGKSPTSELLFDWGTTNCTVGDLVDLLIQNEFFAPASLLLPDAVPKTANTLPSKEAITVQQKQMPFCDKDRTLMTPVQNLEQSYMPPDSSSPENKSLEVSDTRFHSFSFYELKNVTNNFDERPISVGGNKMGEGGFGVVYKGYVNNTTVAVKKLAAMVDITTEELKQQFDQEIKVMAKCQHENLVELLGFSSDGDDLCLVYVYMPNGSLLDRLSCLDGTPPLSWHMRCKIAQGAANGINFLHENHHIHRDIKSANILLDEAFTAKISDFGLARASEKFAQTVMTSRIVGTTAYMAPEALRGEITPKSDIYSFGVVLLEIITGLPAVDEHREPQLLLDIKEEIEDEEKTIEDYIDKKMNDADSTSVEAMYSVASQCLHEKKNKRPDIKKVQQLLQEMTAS

CC[C@@H]1[C@H](F)C(=O)N[C@@H]1COc1ncc(C#CC2CCN(CCOCCNc3cccc4c3C(=O)N(C3CCC(=O)NC3=O)C4=O)CC2)c2cc(C(N)=O)c(OC)cc12 (stereo partly drawn) [I-357, 4-[2-[1-[2-[2-[[2-(2,6-dioxo-3-piperidyl)-1,3-dioxo-isoindolin-4-yl]amino]ethoxy]ethyl]-4-piperidyl]ethynyl]-1-[[(2S,3S,4S)-3-ethyl-4-fluoro-5-oxo-pyrrolidin-2-yl]methoxy]-7-methoxy-isoquinoline-6-carboxamide]
IC50 (OCI-LY10): > 1000 nM
DC50 (IRAK4; [1]): > 1000 nM

CN(CCCNc1cccc2c1C(=O)N(C1CCC(=O)NC1=O)C2=O)C1CCN(C(=O)[C@H]2CC[C@H](n3cc(NC(=O)c4cnn5ccc(C6C[C@H]7C[C@@H]6CO7)nc45)c(C(F)F)n3)CC2)CC1 (some centres unmarked) [I-358]
IC50 (OCI-LY10): 50 to 100 nM
DC50 (IRAK4; [1]): > 1000 nM
DC50 (IRAK4; [2]): 10 to 100 nM

CN(CCc1ccc(CNc2cccc3c2C(=O)N(C2CCC(=O)NC2=O)C3=O)cc1)C[C@H]1CC[C@H](n2cc(NC(=O)c3cnn4ccc(N5C[C@H]6C[C@@H]5CO6)nc34)c(C(F)F)n2)CC1 (some centres unmarked) [I-359]
IC50 (OCI-LY10): < 50 nM
DC50 (IRAK4; [1]): > 1000 nM
DC50 (IRAK4; [2]): > 1000 nM

O=C1CCC(N2C(=O)c3cccc(CNC4CC5(CCN(C[C@H]6CC[C@H](n7cc(NC(=O)c8cnn9ccc(N%10C[C@H]%11C[C@@H]%10CO%11)nc89)c(C(F)F)n7)CC6)CC5)C4)c3C2=O)C(=O)N1 (some centres unmarked) [I-360]
IC50 (OCI-LY10): > 1000 nM
DC50 (IRAK4; [1]): 10 to 100 nM

CN(CCCc1ccc(CNc2cccc3c2C(=O)N(C2CCC(=O)NC2=O)C3=O)cc1)C[C@H]1CC[C@H](n2cc(NC(=O)c3cnn4ccc(N5C[C@H]6C[C@@H]5CO6)nc34)c(C(F)F)n2)CC1 (some centres unmarked) [I-361]
IC50 (OCI-LY10): 500 to 1000 nM
DC50 (IRAK4; [1]): > 1000 nM
DC50 (IRAK4; [2]): 10 to 100 nM

O=C1CCC(N2C(=O)c3cccc(NCCc4ccc(C5CCN(C[C@H]6CC[C@H](n7cc(NC(=O)c8cnn9ccc(N%10C[C@H]%11C[C@@H]%10CO%11)nc89)c(C(F)F)n7)CC6)CC5)cc4)c3C2=O)C(=O)N1 (some centres unmarked) [I-362]
IC50 (OCI-LY10): 500 to 1000 nM
DC50 (IRAK4; [1]): 100 to 1000 nM
DC50 (IRAK4; [2]): 10 to 100 nM

O=C1CCC(N2C(=O)c3cccc(NCCCOCCCOC[C@H]4CC[C@H](n5cc(NC(=O)c6cnn7ccc(N8C[C@H]9C[C@@H]8CO9)nc67)c(C(F)F)n5)CC4)c3C2=O)C(=O)N1 (some centres unmarked) [I-363]
IC50 (OCI-LY10): > 1000 nM
DC50 (IRAK4; [1]): > 1000 nM

O=C1CCC(N2C(=O)c3cccc(NCCCOC4CCN(C[C@H]5CC[C@H](n6cc(NC(=O)c7cnn8ccc(N9CC%10(COC%10)C9)nc78)c(C(F)F)n6)CC5)CC4)c3C2=O)C(=O)N1 (some centres unmarked) [I-364]
IC50 (OCI-LY10): 50 to 100 nM
DC50 (IRAK4; [2]): 10 to 100 nM

O=C1CCC(N2C(=O)c3cccc(NCCC4CCN(C[C@H]5CC[C@H](n6cc(NC(=O)c7cnn8ccc(N9CCOCC9)nc78)c(C(F)F)n6)CC5)CC4)c3C2=O)C(=O)N1 (some centres unmarked) [I-365]
IC50 (OCI-LY10): < 50 nM
DC50 (IRAK4; [1]): 10 to 100 nM

CN(C(=O)CCCNc1cccc2c1C(=O)N(C1CCC(=O)NC1=O)C2=O)C1CCN(C[C@H]2CC[C@H](n3cc(NC(=O)c4cnn5ccc(N6C[C@H]7C[C@@H]6CO7)nc45)c(C(F)F)n3)CC2)CC1 (some centres unmarked) [I-366]
IC50 (OCI-LY10): < 50 nM
DC50 (IRAK4; [1]): < 10 nM

CN(C[C@H]1CC[C@H](n2cc(NC(=O)c3cnn4ccc(N5C[C@H]6C[C@@H]5CO6)nc34)c(C(F)F)n2)CC1)C1CCN(CCNc2cccc3c2C(=O)N(C2CCC(=O)NC2=O)C3=O)CC1 (some centres unmarked) [I-367]
IC50 (OCI-LY10): 100 to 500 nM
DC50 (IRAK4; [1]): 10 to 100 nM

CN1C(=O)CCC(N2C(=O)c3cccc(NCCCOC4CCN(C[C@H]5CC[C@H](n6cc(NC(=O)c7cnn8ccc(N9CCOCC9)nc78)c(C(F)F)n6)CC5)CC4)c3C2=O)C1=O (some centres unmarked) [I-368]
IC50 (OCI-LY10): > 1000 nM
DC50 (IRAK4; [1]): > 1000 nM

O=C1CCC(N2C(=O)c3cccc(NCCOC[C@H]4CC[C@H](n5cc(NC(=O)c6cnn7ccc(N8C[C@H]9C[C@@H]8CO9)nc67)c(C(F)F)n5)CC4)c3C2=O)C(=O)N1 (some centres unmarked) [I-369]
IC50 (OCI-LY10): 100 to 500 nM
DC50 (IRAK4; [1]): > 1000 nM
DC50 (IRAK4; [2]): > 1000 nM

O=C1CCC(N2C(=O)c3cccc(NCC4CC5(CCN(C(=O)[C@H]6CC[C@H](n7cc(NC(=O)c8cnn9ccc(N%10CCNCC%10)nc89)c(C(F)F)n7)CC6)CC5)C4)c3C2=O)C(=O)N1 (some centres unmarked) [I-370]
IC50 (OCI-LY10): 100 to 500 nM
DC50 (IRAK4; [1]): 10 to 100 nM

O=C1CCC(N2C(=O)c3cccc(NCCCOC4CCN(C[C@H]5CC[C@H](n6cc(NC(=O)c7cnn8ccc(N9C[C@H]%10C[C@@H]9CO%10)nc78)c(C(F)F)n6)CC5)CC4)c3C2=O)C(=O)N1 (some centres unmarked) [I-371]
IC50 (OCI-LY10): 50 to 100 nM
DC50 (IRAK4; [2]): 10 to 100 nM

CC[C@@H]1[C@H](F)C(=O)N[C@@H]1COc1ccc(C#C[C@H]2CC[C@H](CN3CCC4(CC3)CC(CNc3cccc5c3C(=O)N(C3CCC(=O)NC3=O)C5=O)C4)CC2)c2cc(C(N)=O)c(OC)cc12 (some centres unmarked) [I-372]
IC50 (OCI-LY10): < 50 nM
DC50 (IRAK4; [1]): > 1000 nM

O=C1CCC(N2C(=O)c3cccc(NCC4CC5(CCN(C[C@H]6CC[C@H](n7cc(NC(=O)c8cnn9ccc(N%10C[C@H]%11C[C@@H]%10CO%11)nc89)c(C(F)F)n7)CC6)CC5)C4)c3C2=O)C(=O)N1 (some centres unmarked) [I-373]
IC50 (OCI-LY10): < 50 nM
DC50 (IRAK4; [1]): > 1000 nM
DC50 (IRAK4; [2]): 10 to 100 nM

O=C1CCC(N2Cc3c(NCCOCC4CCN(C[C@H]5CC[C@H](n6cc(NC(=O)c7cnn8ccc(N9C[C@H]%10C[C@@H]9CO%10)nc78)c(C(F)F)n6)CC5)CC4)cccc3C2=O)C(=O)N1 (some centres unmarked) [I-374]
IC50 (OCI-LY10): > 1000 nM
DC50 (IRAK4; [1]): > 1000 nM
DC50 (IRAK4; [2]): 10 to 100 nM

O=C1CCC(N2C(=O)c3cccc(NCCCOC[C@H]4CC[C@H](n5cc(NC(=O)c6cnn7ccc(N8C[C@H]9C[C@@H]8CO9)nc67)c(C(F)F)n5)CC4)c3C2=O)C(=O)N1 (some centres unmarked) [I-375]
IC50 (OCI-LY10): 500 to 1000 nM
DC50 (IRAK4; [1]): > 1000 nM

O=C1CCC(N2Cc3c(OCc4ccc(CN5CCN(C[C@H]6CC[C@H](n7cc(NC(=O)c8cnn9ccc(N%10CCOCC%10)nc89)c(C(F)F)n7)CC6)CC5)cc4)cccc3C2=O)C(=O)N1 (some centres unmarked) [I-377]
IC50 (OCI-LY10): < 50 nM
DC50 (IRAK4; [1]): > 1000 nM
DC50 (IRAK4; [2]): < 10 nM

O=C1CCC(N2Cc3c(OCc4ccc(CN5CCN(C[C@H]6CC[C@H](n7cc(NC(=O)c8coc(-c9ccnc(NCC%10CC%10)c9)n8)c(C(F)F)n7)CC6)CC5)cc4)cccc3C2=O)C(=O)N1 (some centres unmarked) [I-379]
IC50 (OCI-LY10): 100 to 500 nM
DC50 (IRAK4; [1]): > 1000 nM
DC50 (IRAK4; [2]): > 1000 nM

O=C1CCC(N2Cc3c(NCC4CCN(C[C@H]5CC[C@H](C6N=C(NC(=O)c7cnn8ccc(N9C[C@H]%10C[C@@H]9CO%10)nc78)C(C(F)F)=N6)CC5)CC4)cccc3C2=O)C(=O)N1 (some centres unmarked) [I-380]
IC50 (OCI-LY10): > 1000 nM
DC50 (IRAK4; [1]): 100 to 1000 nM
DC50 (IRAK4; [2]): 10 to 100 nM

O=C1CCC(N2C(=O)c3cccc(NC4CC5(CCN(C[C@H]6CC[C@H](n7cc(NC(=O)c8cnn9ccc(N%10C[C@H]%11C[C@@H]%10CO%11)nc89)c(C(F)F)n7)CC6)CC5)C4)c3C2=O)C(=O)N1 (some centres unmarked) [I-381]
IC50 (OCI-LY10): 50 to 100 nM
DC50 (IRAK4; [1]): 10 to 100 nM
DC50 (IRAK4; [2]): < 10 nM

O=C1CCC(N2C(=O)c3cccc(NC4CCN(CCCNC[C@H]5CC[C@H](n6cc(NC(=O)c7cnn8ccc(N9CCOCC9)nc78)c(C(F)F)n6)CC5)CC4)c3C2=O)C(=O)N1 (some centres unmarked) [I-384]
IC50 (OCI-LY10): < 50 nM
DC50 (IRAK4; [1]): 10 to 100 nM

O=C1CCC(N2C(=O)c3cccc(NCC4CCN(C[C@H]5CC[C@H](n6cc(NC(=O)c7cnn8ccc(N9CCOCC9)nc78)c(C(F)F)n6)CC5)CC4)c3C2=O)C(=O)N1 (some centres unmarked) [I-385]
IC50 (OCI-LY10): < 50 nM
DC50 (IRAK4; [1]): > 1000 nM
DC50 (IRAK4; [2]): 10 to 100 nM

CC[C@@H]1[C@H](F)C(=O)N[C@@H]1COc1ncc(C#C[C@H]2CC[C@H](CN3CCC(OCCNc4cccc5c4C(=O)N(C4CCC(=O)NC4=O)C5=O)CC3)CC2)c2cc(C(N)=O)c(OC)cc12 (some centres unmarked) [I-386]
IC50 (OCI-LY10): < 50 nM
DC50 (IRAK4; [1]): 100 to 1000 nM
DC50 (IRAK4; [2]): 10 to 100 nM
